Experimental findings from patent US20210403435A1, “HERBICIDAL COMPOUNDS” (SYNGENTA CROP PROTECTION AG, priority 2018, published 2021) are described below.

Common to all, as to assay: Post-emergence efficacy, glasshouse, evaluated after 13 days
Format in all cases: in vivo

In assay [1] the test system is Ipomoea hederacea (IPOHE). Particulars: for pest or weed control at 500 g/ha: Ipomoea hederacea, 312 h, read-out: Control of weed species IPOHE (100=total damage to plant; 0=no damage to plant). The essentials:
(§1)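 Plants grown 14 days in pots of standard soil in a glasshouse (24/16 °C day/night, 14 h light, 65% humidity), then sprayed post-emergence with compound formulated in acetone and IF50 and diluted in 0.25% or 1% Empicol ESC70 + 1% ammonium sulphate. Damage scored after 13 days, 0–100 (100 = total damage).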

Another assay deals with Eleusine indica (ELEIN). The settings on record: for pest or weed control at 500 g/ha: Eleusine indica, 312 h, read-out: Control of weed species ELEIN (100=total damage to plant; 0=no damage to plant). The essentials: as §1
Assay [2] has as its system Euphorbia heterophylla (EPHHL). Particulars: for pest or weed control at 500 g/ha: Euphorbia heterophylla, 312 h, read-out: Control of weed species EPHHL (100=total damage to plant; 0=no damage to plant). The essentials: as §1
Assay [3] concerns Digitaria sanguinalis (DIGSA). The settings on record: for pest or weed control at 500 g/ha: Digitaria sanguinalis, 312 h, read-out: Control of weed species DIGSA (100=total damage to plant; 0=no damage to plant). The essentials:
as §1

In the next assay the test system is Lolium perenne (LOLPE). The settings on record: for pest or weed control at 500 g/ha: Lolium perenne, 312 h, read-out: Control of weed species LOLPE (100=total damage to plant; 0=no damage to plant). The essentials: as §1
Assay [4] relates to Chenopodium album (CHEAL). Particulars: for pest or weed control at 500 g/ha: Chenopodium album, 312 h, read-out: Control of weed species CHEAL (100=total damage to plant; 0=no damage to plant). Put shortly:
as §1

The test system of assay [5] is Echinochloa crus-galli (ECHCG). The settings on record: for pest or weed control at 500 g/ha: Echinochloa crus-galli, 312 h, read-out: Control of weed species ECHCG (100=total damage to plant; 0=no damage to plant). Put shortly:
as §1

Another assay relates to Setaria faberi (SETFA). The settings on record: for pest or weed control at 500 g/ha: Setaria faberi, 312 h, read-out: Control of weed species SETFA (100=total damage to plant; 0=no damage to plant). The essentials: as §1
The test system of assay [6] is Amaranthus palmeri (AMAPA). The settings on record: for pest or weed control at 500 g/ha: Amaranthus palmeri, 312 h, read-out: Control of weed species AMAPA (100=total damage to plant; 0=no damage to plant). Put shortly: as §1
Setting [7] is: post-emergence application, 500 g/Ha, evaluated after 13 days.

The structures appear in SMILES notation. Where two headings read alike, the source gives them in different places.

For the compound `CCNC(=O)c1cc[n+](CCCS(=O)(=O)[O-])nc1` [Compound A76], the pest or weed control at 500 g/ha in assay [1] (setting [7]) was found to be 30%; in the assay on Eleusine indica (ELEIN) (setting [7]), 60%; in assay [2] (setting [7]) it was 100%; in [3] (setting [7]), 70%; in the assay with Lolium perenne (LOLPE) (setting [7]) it was 70%; in assay [4] (setting [7]), 70%. Moreover, the pest or weed control at 500 g/ha was found to be 30% in assay [5] (setting [7]), 30% in the assay on Setaria faberi (SETFA) (setting [7]) and 40% in [6] (setting [7]).

With `CCNC(=O)c1cc[n+](CCOS(=O)(=O)[O-])nc1` [Compound A80], the pest or weed control at 500 g/ha turned out to be 70% in [1] (setting [7]); 90% with Eleusine indica (ELEIN) (setting [7]); 90% in assay [2] (setting [7]); 90% in assay [3] (setting [7]); 70% with Lolium perenne (LOLPE) (setting [7]); 100% in assay [4] (setting [7]). In addition, the pest or weed control at 500 g/ha stood at 90% in assay [5] (setting [7]), 80% in the assay on Setaria faberi (SETFA) (setting [7]) and 100% in assay [6] (setting [7]).

For the compound `CCNC(=O)c1cc[n+](CCNS(=O)(=O)[O-])nc1` [Compound A81], the pest or weed control at 500 g/ha in [1] (setting [7]) was found to be 90%; in the assay with Eleusine indica (ELEIN) (setting [7]), 100%; in assay [2] (setting [7]), 100%; in [3] (setting [7]), 90%; in the assay with Lolium perenne (LOLPE) (setting [7]) it was 90%; in assay [4] (setting [7]), 100%. Also, the pest or weed control at 500 g/ha (in assay [5] (setting [7]); with Setaria faberi (SETFA) (setting [7]); in assay [6] (setting [7])) was 100% each time.

Take `CCNC(=O)c1cc[n+](CCCOS(=O)(=O)[O-])nc1` [Compound A83]: the “Control of weed species IPOHE (100=total damage to plant; 0=no damage to plant)” value in assay [1] (setting [7]) was 80. Further, the “Control of weed species ELEIN (100=total damage to plant; 0=no damage to plant)” value in the assay with Eleusine indica (ELEIN) (setting [7]) was determined as 90. In addition, the “Control of weed species EPHHL (100=total damage to plant; 0=no damage to plant)” value in assay [2] (setting [7]) was 90. Besides, in assay [3] (setting [7]), the “Control of weed species DIGSA (100=total damage to plant; 0=no damage to plant)” value amounted to 90. For the same compound, the “Control of weed species LOLPE (100=total damage to plant; 0=no damage to plant)” value in the assay with Lolium perenne (LOLPE) (setting [7]) was found to be 80. Also, the “Control of weed species CHEAL (100=total damage to plant; 0=no damage to plant)” value in assay [4] (setting [7]) was 90. In addition, the “Control of weed species ECHCG (100=total damage to plant; 0=no damage to plant)” value in [5] (setting [7]) is 90. Besides, the “Control of weed species SETFA (100=total damage to plant; 0=no damage to plant)” value in the assay on Setaria faberi (SETFA) (setting [7]) was 60. For the same compound, the “Control of weed species AMAPA (100=total damage to plant; 0=no damage to plant)” value in assay [6] (setting [7]) was 90.

`O=C(Nc1ccccc1O)c1cc[n+](CCS(=O)(=O)[O-])nc1` [Compound A84, 2-[4-[(2-hydroxyphenyl)carbamoyl]pyridazin-1-ium-1-yl]ethanesulfonate]: the pest or weed control at 500 g/ha in [1] (setting [7]) was found to be 10%; with Eleusine indica (ELEIN) (setting [7]) it was 10%; in assay [2] (setting [7]), 30%; in assay [3] (setting [7]), 50%; in the assay on Lolium perenne (LOLPE) (setting [7]), 0%; in [4] (setting [7]), 30%. The pest or weed control at 500 g/ha worked out at 20% in assay [5] (setting [7]), 20% with Setaria faberi (SETFA) (setting [7]) and 0% in assay [6] (setting [7]).

With `CC(C#N)NC(=O)c1cc[n+](CCC(=O)O)nc1` (stereo not drawn) [Compound A85], the pest or weed control at 500 g/ha is 30% in assay [1] (setting [7]); 100% with Eleusine indica (ELEIN) (setting [7]); 100% in [2] (setting [7]); 100% in [3] (setting [7]); 60% in the assay with Lolium perenne (LOLPE) (setting [7]); 90% in assay [4] (setting [7]). The pest or weed control at 500 g/ha in assay [5] (setting [7]) was determined as 90%; in the assay on Setaria faberi (SETFA) (setting [7]) it was 90%; in assay [6] (setting [7]), 100%.

As for `CC#CCNC(=O)c1cc[n+](CCC(=O)O)nc1` [Compound A86], the pest or weed control at 500 g/ha in [1] (setting [7]) amounted to 20%; with Eleusine indica (ELEIN) (setting [7]), 90%; in assay [2] (setting [7]), 100%; in assay [3] (setting [7]), 100%; in the assay with Lolium perenne (LOLPE) (setting [7]), 60%; in assay [4] (setting [7]) it was 90%. In addition, the pest or weed control at 500 g/ha (in assay [5] (setting [7]); in the assay on Setaria faberi (SETFA) (setting [7]); in assay [6] (setting [7])) was 100% each time.

Take `CCNC(=O)c1cc[n+](CCP(=O)(OCC)OCC)nc1` [Compound A87]: the pest or weed control at 500 g/ha came to 30% in assay [1] (post-emergence); 20% in the assay on Eleusine indica (ELEIN) (post-emergence); 40% in assay [2] (post-emergence); 10% in assay [3] (post-emergence); 10% in the assay on Lolium perenne (LOLPE) (post-emergence); 100% in assay [4] (post-emergence). For the same compound, the pest or weed control at 500 g/ha is 0% in assay [5] (post-emergence), 60% with Setaria faberi (SETFA) (post-emergence) and 100% in [6] (post-emergence).

For the compound `CCNC(=O)c1cc[n+](CC(C)(C)C(=O)O)nc1` [Compound A88], the pest or weed control at 500 g/ha in assay [1] (setting [7]) amounted to 90%; with Eleusine indica (ELEIN) (setting [7]), 100%; in assay [2] (setting [7]), 90%; in assay [3] (setting [7]), 80%; with Lolium perenne (LOLPE) (setting [7]), 60%; in [4] (setting [7]), 100%. Also, the pest or weed control at 500 g/ha in [5] (setting [7]) amounted to 90%; in the assay on Setaria faberi (SETFA) (setting [7]), 100%; in assay [6] (setting [7]), 100%.

As to `CCNC(=O)c1cc[n+](CC(=O)OC)nc1` [Compound A89], the pest or weed control at 500 g/ha in assay [1] (setting [7]) was 20%; in the assay with Eleusine indica (ELEIN) (setting [7]) it was 0%; in [2] (setting [7]) it was 20%; in assay [3] (setting [7]), 0%; in the assay with Lolium perenne (LOLPE) (setting [7]), 0%; in [4] (setting [7]), 0%. Further, the pest or weed control at 500 g/ha (in [5] (setting [7]); with Setaria faberi (SETFA) (setting [7]); in [6] (setting [7])) was 0% each time.

Turning to `N#CCNC(=O)c1cc[n+](CCC(=O)O)nc1` [Compound A90], the pest or weed control at 500 g/ha in assay [1] (setting [7]) was found to be 80%; in the assay on Eleusine indica (ELEIN) (setting [7]) it was 100%; in assay [2] (setting [7]) it was 100%; in assay [3] (setting [7]), 100%; in the assay on Lolium perenne (LOLPE) (setting [7]) it was 70%; in [4] (setting [7]) it was 90%. In addition, the pest or weed control at 500 g/ha (in assay [5] (setting [7]); with Setaria faberi (SETFA) (setting [7]); in assay [6] (setting [7])) was 100% each time.

On to `CCNC(=O)c1cc[n+](CC[C@H](N)C(=O)O)nc1` [Compound A91, [(1S)-1-carboxy-3-[4-(ethylcarbamoyl)pyridazin-1-ium-1-yl]propyl]ammonium dichloride], for which the pest or weed control at 500 g/ha is 30% in assay [1] (setting [7]); 70% in the assay on Eleusine indica (ELEIN) (setting [7]); 20% in assay [2] (setting [7]); 60% in [3] (setting [7]); 60% in the assay with Lolium perenne (LOLPE) (setting [7]); 50% in assay [4] (setting [7]). The pest or weed control at 500 g/ha turned out to be 0% in [5] (setting [7]), 70% in the assay on Setaria faberi (SETFA) (setting [7]) and 70% in [6] (setting [7]).

In the case of `CC1(NC(=O)c2cc[n+](CCC(=O)O)nc2)CC1` [Compound A92], the pest or weed control at 500 g/ha in assay [1] (setting [7]) was 50%; in the assay with Eleusine indica (ELEIN) (setting [7]), 90%; in assay [2] (setting [7]), 100%; in assay [3] (setting [7]) it was 100%; in the assay on Lolium perenne (LOLPE) (setting [7]), 90%; in assay [4] (setting [7]), 100%. The results for the pest or weed control at 500 g/ha (in [5] (setting [7]); in the assay with Setaria faberi (SETFA) (setting [7]); in [6] (setting [7])) were 80%, 100% and 100%, respectively.
